The text below walks through data of patent US12012403B2, “Aryl sulfonyl compounds as CCR6 inhibitors” (CHEMOCENTRYX, INC., priority 2021, dated 2024).

Structures are written as SMILES. pIC50: −log10 of the molar value.

In the experiment the target is T1, human CCR6 (Homo sapiens, UniProt P51684).
T1 construct: expressed in transfected cells; host or cells: Ba/F3 cells (murine pro-B line), hCCR6-transfected, CMV promoter, sodium butyrate induction
T1 sequence (P51684 1-374): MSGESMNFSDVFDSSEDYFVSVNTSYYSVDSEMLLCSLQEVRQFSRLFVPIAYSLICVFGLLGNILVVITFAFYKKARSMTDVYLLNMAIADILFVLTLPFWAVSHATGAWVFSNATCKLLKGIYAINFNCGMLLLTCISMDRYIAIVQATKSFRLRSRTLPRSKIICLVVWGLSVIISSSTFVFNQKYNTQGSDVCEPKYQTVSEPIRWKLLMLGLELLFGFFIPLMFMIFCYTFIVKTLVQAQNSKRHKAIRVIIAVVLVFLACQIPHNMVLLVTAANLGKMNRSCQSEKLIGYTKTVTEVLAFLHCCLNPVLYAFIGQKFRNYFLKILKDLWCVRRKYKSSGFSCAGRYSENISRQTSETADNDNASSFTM
In words: Migration (chemotaxis) assay, hCCR6-transfected Ba/F3 cells toward CCL20. The experiment is classed as cell-based. Conditions: hCCR6-transfected Ba/F3 cells in human serum; recombinant human CCL20 10 nM; 37° C. 45 minutes; read-out: Potency (IC50 value in the migration assay). The procedure, abridged:
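Ba/F3 cells stably transfected with human CCR6 (CMV promoter), pre-induced 24 hr with sodium butyrate, suspended at 4 million/ml in human serum with test compound serially diluted from 10 μM final. Migration through 5-μm polycarbonate membrane toward 10 nM CCL20 (EC50) for 45 min at 37 °C; migrated cells quantified by CyQUANT fluorescence.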
Consider `Nc1nc2cc(-c3ccc(S(=O)(=O)N4CCC(Nc5ccc(C(F)(F)F)cn5)CC4)cc3)ccc2o1` [Example 1.118], for which the pIC50 is more than 8.30.

`CC(C)(C)OC(=O)N1CCC=C(c2ccc(S(=O)(=O)N3CCC(Nc4ccc(C(F)(F)F)cn4)CC3)cc2)C1` [Example 1.233]: the pIC50 is 7.00 to 8.30. The value for `CC(C)(C)OC(=O)N[C@H]1CCN(c2ccc(S(=O)(=O)N3CCC(Nc4ccc(C(F)(F)F)cn4)CC3)cc2)C1` [Example 1.218] was 5.00 to 7.00. Under `N#Cc1n[nH]c2c1CN(c1ccc(S(=O)(=O)N3CCC(Nc4ccc(C(F)(F)F)cn4)CC3)cc1)CC2` [Example 1.207] stands 5.00 to 7.00; under `CS(=O)(=O)N1CCCC(c2ccc(S(=O)(=O)N3CCC(Nc4ccc(C(F)(F)F)cn4)CC3)cc2)C1` (centres unmarked) [Example 1.179], 7.00 to 8.30. Under `NS(=O)(=O)C1CCN(c2ccc(S(=O)(=O)N3CCC(Nc4ccc(C(F)(F)F)cn4)CC3)cc2)CC1` [Example 1.189] stands 5.00 to 7.00. `O=C1Cc2cc(-c3ccc(S(=O)(=O)N4CCC(Nc5ccc(C(F)(F)F)cn5)CC4)cc3)ccc2N1` [Example 1.076]: the pIC50 is more than 8.30. The value for `CNC(=O)CC1CCN(c2ccc(S(=O)(=O)N3CCC(Nc4ccc(C(F)(F)F)cn4)CC3)cc2)CC1` [Example 1.135] was 7.00 to 8.30; that for `CC(=O)NCC1CCN(c2ccc(S(=O)(=O)N3CCC(Nc4ccc(C(F)(F)F)cn4)CC3)cc2)CC1` [Example 1.140] was 7.00 to 8.30; that for `O=C1Cc2ccc(-c3ccc(S(=O)(=O)N4CCC(Nc5ccc(C(F)(F)F)cn5)CC4)cc3)cc2N1` [Example 1.084] was 7.00 to 8.30. For the molecule `O=C1Cc2cc(-c3ccc(S(=O)(=O)N4CCC(Nc5ccc(C(F)(F)F)cn5)CC4)cc3)ncc2N1` [Example 1.043], the pIC50 is 5.00 to 7.00. The value for `O=c1[nH]c2ccc(-c3ccc(S(=O)(=O)N4CCC(Nc5ccc(C(F)(F)F)cn5)CC4)cc3)cc2n1C1COC1` [Example 1.041] was 7.00 to 8.30. The value for `O=C(CO)N1CCN(c2ccc(S(=O)(=O)N3CCC(Nc4ccc(C(F)(F)F)cn4)CC3)cc2)CC1` [Example 1.194] was 7.00 to 8.30. Under `O=S(=O)(c1ccc(N2CCC(c3cnc[nH]3)CC2)cc1)N1CCC(Nc2ccc(C(F)(F)F)cn2)CC1` [Example 1.130] stands 5.00 to 7.00.

`O=S(=O)(c1ccc(-c2ccc3[nH]ncc3c2)cc1)N1CCC(Nc2ccc(C(F)(F)F)cn2)CC1` [Example 1.096]: the pIC50 is 7.00 to 8.30.

In the case of `N#Cc1c[nH]c2ncc(-c3ccc(S(=O)(=O)[C@H]4CC[C@H](Nc5ccc(C(F)(F)F)cn5)CC4)cc3)cc12` [Example 1.071], the pIC50 is more than 8.30. The value for `Nc1nc(=O)c2cc(-c3ccc(S(=O)(=O)N4CCC(Nc5ccc(C(F)(F)F)cn5)CC4)cc3)ccc2[nH]1` [Example 1.015] was more than 8.30. The value for `NC(=O)C1CC12CCN(c1ccc(S(=O)(=O)N3CCC(Nc4ccc(C(F)(F)F)cn4)CC3)cc1)CC2` (centres unmarked) [Example 1.137] was 5.00 to 7.00. Under `COc1cc(-c2ccc(S(=O)(=O)N3CCC(Nc4ccc(C(F)(F)F)cn4)CC3)cc2)cc2c1NC(=O)C2` [Example 1.045] stands 7.00 to 8.30; under `CC(=O)NCCn1cc(C#N)c2cc(-c3ccc(S(=O)(=O)N4CCC(Nc5ccc(C(F)(F)F)cn5)CC4)cc3)cnc21` [Example 1.011], more than 8.30; under `O=C1CC2(CCN(c3ccc(S(=O)(=O)N4CCC(Nc5ccc(C(F)(F)F)cn5)CC4)cc3)CC2)C(=O)N1` [Example 1.149], 7.00 to 8.30. As for `Cc1n[nH]c2ccc(-c3ccc(S(=O)(=O)N4CCC(Nc5ccc(C(F)(F)F)cn5)CC4)cc3)cc12` [Example 1.094], the pIC50 was 7.00 to 8.30. The value for `NC(=O)C1CC2(C1)CN(c1ccc(S(=O)(=O)N3CCC(Nc4ccc(C(F)(F)F)cn4)CC3)cc1)C2` [Example 1.121] was 7.00 to 8.30; that for `O=S(=O)(c1ccc(-c2ccc3[nH]nnc3c2)cc1)N1CCC(Nc2ccc(C(F)(F)F)cn2)CC1` [Example 1.109] was 5.00 to 7.00.

Regarding `CS(=O)(=O)NCC1CCN(c2ccc(S(=O)(=O)N3CCC(Nc4ccc(C(F)(F)F)cn4)CC3)cc2)CC1` [Example 1.141], the pIC50 is 7.00 to 8.30.

Regarding `NC(=O)C1CCN(c2ccc(S(=O)(=O)N3CCC(Nc4ccc(C(F)(F)F)cn4)CC3)cc2)C1` (centres unmarked) [Example 1.195], the pIC50 is 5.00 to 7.00. Turning to `Cc1c(-c2ccc(S(=O)(=O)N3CCC(Nc4ccc(C(F)(F)F)cn4)CC3)cc2)cnc2[nH]ccc12` [Example 1.023], the pIC50 is more than 8.30.

For `O=C1NCc2ccc(-c3ccc(S(=O)(=O)N4CCC(Nc5ccc(C(F)(F)F)cn5)CC4)cc3)cc21` [Example 1.093], the pIC50 is more than 8.30.

Turning to `CN1CCC2(CC1)C(=O)Nc1ccc(-c3ccc(S(=O)(=O)N4CCC(Nc5ccc(C(F)(F)F)cn5)CC4)cc3)cc12` [Example 1.006], the pIC50 is 5.00 to 7.00.
